From patent US10750743B2, “Pyridazinone herbicides” (E.I. DU PONT DE NEMOURS AND COMPANY, priority 2015, dated 2020)

Key:
Format in all cases: in vivo
[1] = tested on: barnyardgrass (Echinochloa crus-galli); test: Test A postemergence application, visual injury rating; settings: 0 to 100 scale, 0 no effect, 100 complete control
Summary of the method: (§1)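 Seeds sown in a loam soil–sand blend received a directed preemergence soil spray of test chemical in a non-phytotoxic solvent mixture with surfactant. Postemergence plants were sprayed at 2 to 10 cm, one- to two-leaf stage. After approximately 10 d in greenhouse, injury was visually rated 0 (no effect) to 100 (complete control) against untreated controls.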

[2] = tested on: corn (Zea mays); test: as above; settings: 0 to 100 scale, 0 no effect, 100 complete control
Summary of the method: as §1

[3] = tested on: blackgrass (Alopecurus myosuroides); test: as above; settings: 0 to 100 scale, 0 no effect, 100 complete control
Summary of the method: as §1

[4] = tested on: kochia (Kochia scoparia); test: as above; settings: 0 to 100 scale, 0 no effect, 100 complete control
Summary of the method: as §1

[5] = tested on: pigweed (Amaranthus retroflexus); test: as above; settings: 0 to 100 scale, 0 no effect, 100 complete control
Summary of the method: as §1

[6] = tested on: wheat (Triticum aestivum); test: as above; settings: 0 to 100 scale, 0 no effect, 100 complete control
Summary of the method: as §1

[7] = tested on: ryegrass, It. (Italian ryegrass, Lolium multiflorum); test: as above; settings: 0 to 100 scale, 0 no effect, 100 complete control
Summary of the method: as §1

[8] = tested on: ragweed (common ragweed, Ambrosia elatior); test: as above; settings: 0 to 100 scale, 0 no effect, 100 complete control
Summary of the method: as §1

[9] = tested on: galium (catchweed bedstraw, Galium aparine); test: as above; settings: 0 to 100 scale, 0 no effect, 100 complete control
Summary of the method: as §1

[10] = tested on: foxtail, giant (giant foxtail, Setaria faberii); test: as above; settings: 0 to 100 scale, 0 no effect, 100 complete control
Summary of the method: as §1

[11] = tested on: barnyardgrass (Echinochloa crus-galli); test: Test B flooded paddy test, visual rating; settings: Flood, 250 g ai/ha, applied to paddy water, rated after 13 to 15 d
Summary of the method: (§2)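 Plants at the 2-leaf stage were flooded to 3 cm above soil, and test compounds were applied directly into the paddy water, which was held at that depth throughout. After 13 to 15 d in a greenhouse, injury was rated visually against untreated controls on a 0–100 scale (0 no effect, 100 complete control).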

[12] = tested on: rice (Oryza sativa); test: Test B flooded paddy test, visual rating; settings: Flood, 250 g ai/ha, applied to paddy water, rated after 13 to 15 d
Summary of the method: as §2

[13] = tested on: sedge, umbrella (small-flower umbrella sedge, Cyperus difformis); test: Test B flooded paddy test, visual rating; settings: Flood, 250 g ai/ha, applied to paddy water, rated after 13 to 15 d
Summary of the method: as §2

[14] = tested on: ducksalad (Heteranthera limosa); test: Test B flooded paddy test, visual rating; settings: Flood, 250 g ai/ha, applied to paddy water, rated after 13 to 15 d
Summary of the method: as §2

[15] = tested on: barnyardgrass (Echinochloa crus-galli); test: Test A preemergence, directed soil spray, visual injury rating; settings: 0 is no effect, 100 is complete control
Summary of the method: as §1

[16] = tested on: kochia (Kochia scoparia); test: as above; settings: 0 is no effect, 100 is complete control
Summary of the method: as §1

[17] = tested on: pigweed (Amaranthus retroflexus); test: as above; settings: 0 is no effect, 100 is complete control
Summary of the method: as §1

[18] = tested on: ryegrass, It. (Italian ryegrass, Lolium multiflorum); test: as above; settings: 0 is no effect, 100 is complete control
Summary of the method: as §1

[19] = tested on: ragweed (common ragweed, Ambrosia elatior); test: as above; settings: 0 is no effect, 100 is complete control
Summary of the method: as §1

[20] = tested on: foxtail, giant (giant foxtail, Setaria faberii); test: as above; settings: 0 is no effect, 100 is complete control
Summary of the method: as §1

Row | SMILES | Barnyardgrass plant response rating ([1]; 31 g ai/ha) | Barnyardgrass plant response rating ([1]; 125 g ai/ha) | Corn plant response rating ([2]; 31 g ai/ha) | Corn plant response rating ([2]; 125 g ai/ha) | Blackgrass plant response rating ([3]; 31 g ai/ha) | Blackgrass plant response rating ([3]; 125 g ai/ha) | Kochia plant response rating ([4]; 31 g ai/ha) | Kochia plant response rating ([4]; 125 g ai/ha) | Pigweed plant response rating ([5]; 31 g ai/ha) | Pigweed plant response rating ([5]; 125 g ai/ha) | Wheat plant response rating ([6]; 31 g ai/ha) | Wheat plant response rating ([6]; 125 g ai/ha) | Ryegrass, It. plant response rating ([7]; 31 g ai/ha) | Ryegrass, It. plant response rating ([7]; 125 g ai/ha) | Ragweed plant response rating ([8]; 31 g ai/ha) | Ragweed plant response rating ([8]; 125 g ai/ha) | Galium plant response rating ([9]; 31 g ai/ha) | Galium plant response rating ([9]; 125 g ai/ha) | Foxtail, Giant plant response rating ([10]; 31 g ai/ha) | Foxtail, Giant plant response rating ([10]; 125 g ai/ha) | further results
1 | Cc1cc2c(Cl)ccc(-c3c(OC(=O)c4ccccc4)c(C)nn(C)c3=O)c2o1 [Compound 39] | 0 | 10 | 0 | 0 | 0 | 20 | 0 | 0 | 0 | 0 | 0 | 0 | 20 | 30 | 0 | 10 | 30 | 90 | 0 | 10 | Barnyardgrass plant response rating (0 to 100 scale, 0 is no effect, 100 is complete control) [11]: 0; Rice plant response rating (0 to 100 scale, 0 is no effect, 100 is complete control) [12]: 0; Sedge, Umbrella plant response rating (0 to 100 scale, 0 is no effect, 100 is complete control) [13]: 0; Ducksalad plant response rating (0 to 100 scale, 0 is no effect, 100 is complete control) [14]: 50; Plant response rating (0 to 100 scale), Barnyardgrass ([15]; 31 g ai/ha): 0; Plant response rating (0 to 100 scale), Barnyardgrass ([15]; 125 g ai/ha): 0; Plant response rating (0 to 100 scale), Kochia ([16]; 31 g ai/ha): 0; Plant response rating (0 to 100 scale), Kochia ([16]; 125 g ai/ha): 0; Plant response rating (0 to 100 scale), Pigweed ([17]; 31 g ai/ha): 0; Plant response rating (0 to 100 scale), Pigweed ([17]; 125 g ai/ha): 0; Plant response rating (0 to 100 scale), Ryegrass, It. ([18]; 31 g ai/ha): 10; Plant response rating (0 to 100 scale), Ryegrass, It. ([18]; 125 g ai/ha): 50; Plant response rating (0 to 100 scale), Ragweed ([19]; 31 g ai/ha): 0; Plant response rating (0 to 100 scale), Ragweed ([19]; 125 g ai/ha): 0; Plant response rating (0 to 100 scale), Foxtail, Giant ([20]; 31 g ai/ha): 0; Plant response rating (0 to 100 scale), Foxtail, Giant ([20]; 125 g ai/ha): 0
2 | COC(=O)Oc1c(C)nn(C)c(=O)c1-c1ccc(Cl)c2cc(C)oc12 [Compound 40] | 10 | 20 | 0 | 10 | 0 | 20 | 0 | 0 | 20 | 40 | 0 | 0 | 40 | 70 | 20 | 40 | 90 | 100 | 10 | 20 | Barnyardgrass plant response rating (0 to 100 scale, 0 is no effect, 100 is complete control) [11]: 0; Rice plant response rating (0 to 100 scale, 0 is no effect, 100 is complete control) [12]: 0; Sedge, Umbrella plant response rating (0 to 100 scale, 0 is no effect, 100 is complete control) [13]: 0; Ducksalad plant response rating (0 to 100 scale, 0 is no effect, 100 is complete control) [14]: 0; Plant response rating (0 to 100 scale), Barnyardgrass ([15]; 31 g ai/ha): 0; Plant response rating (0 to 100 scale), Barnyardgrass ([15]; 125 g ai/ha): 20; Plant response rating (0 to 100 scale), Kochia ([16]; 31 g ai/ha): 0; Plant response rating (0 to 100 scale), Kochia ([16]; 125 g ai/ha): 0; Plant response rating (0 to 100 scale), Pigweed ([17]; 31 g ai/ha): 0; Plant response rating (0 to 100 scale), Pigweed ([17]; 125 g ai/ha): 60; Plant response rating (0 to 100 scale), Ryegrass, It. ([18]; 31 g ai/ha): 80; Plant response rating (0 to 100 scale), Ryegrass, It. ([18]; 125 g ai/ha): 90; Plant response rating (0 to 100 scale), Ragweed ([19]; 31 g ai/ha): 0; Plant response rating (0 to 100 scale), Ragweed ([19]; 125 g ai/ha): 50; Plant response rating (0 to 100 scale), Foxtail, Giant ([20]; 31 g ai/ha): 0; Plant response rating (0 to 100 scale), Foxtail, Giant ([20]; 125 g ai/ha): 20
